These results are taken from article PMC9856672, “SGC-CAMKK2-1: A Chemical Probe for CAMKK2” (Cells, 2023).

The structures appear in SMILES notation.

In one experiment the target is T1, DDR2 (Homo sapiens, UniProt Q16832).
T1 construct: purchased Eurofins DiscoverX KINOMEscan
The experiment can be described thus: KINOMEscan 1 μM, DDR2. In kind it is binding. The note with it: 1000 nM; Entrez DDR2; read-out: Percent Control. From the text:
(§1) Supplement cells-12-00287-s001.zip/File S2. KinomeScan data for the CAMKK2 probe and negative control.xlsx, sheet "SGC-CAMKK2-1" | column: Percent Control

The target in the next experiment is T2, GAK (Homo sapiens, UniProt O14976).
T2 construct: purchased Eurofins DiscoverX KINOMEscan
T2 sequence (O14976 whole entry): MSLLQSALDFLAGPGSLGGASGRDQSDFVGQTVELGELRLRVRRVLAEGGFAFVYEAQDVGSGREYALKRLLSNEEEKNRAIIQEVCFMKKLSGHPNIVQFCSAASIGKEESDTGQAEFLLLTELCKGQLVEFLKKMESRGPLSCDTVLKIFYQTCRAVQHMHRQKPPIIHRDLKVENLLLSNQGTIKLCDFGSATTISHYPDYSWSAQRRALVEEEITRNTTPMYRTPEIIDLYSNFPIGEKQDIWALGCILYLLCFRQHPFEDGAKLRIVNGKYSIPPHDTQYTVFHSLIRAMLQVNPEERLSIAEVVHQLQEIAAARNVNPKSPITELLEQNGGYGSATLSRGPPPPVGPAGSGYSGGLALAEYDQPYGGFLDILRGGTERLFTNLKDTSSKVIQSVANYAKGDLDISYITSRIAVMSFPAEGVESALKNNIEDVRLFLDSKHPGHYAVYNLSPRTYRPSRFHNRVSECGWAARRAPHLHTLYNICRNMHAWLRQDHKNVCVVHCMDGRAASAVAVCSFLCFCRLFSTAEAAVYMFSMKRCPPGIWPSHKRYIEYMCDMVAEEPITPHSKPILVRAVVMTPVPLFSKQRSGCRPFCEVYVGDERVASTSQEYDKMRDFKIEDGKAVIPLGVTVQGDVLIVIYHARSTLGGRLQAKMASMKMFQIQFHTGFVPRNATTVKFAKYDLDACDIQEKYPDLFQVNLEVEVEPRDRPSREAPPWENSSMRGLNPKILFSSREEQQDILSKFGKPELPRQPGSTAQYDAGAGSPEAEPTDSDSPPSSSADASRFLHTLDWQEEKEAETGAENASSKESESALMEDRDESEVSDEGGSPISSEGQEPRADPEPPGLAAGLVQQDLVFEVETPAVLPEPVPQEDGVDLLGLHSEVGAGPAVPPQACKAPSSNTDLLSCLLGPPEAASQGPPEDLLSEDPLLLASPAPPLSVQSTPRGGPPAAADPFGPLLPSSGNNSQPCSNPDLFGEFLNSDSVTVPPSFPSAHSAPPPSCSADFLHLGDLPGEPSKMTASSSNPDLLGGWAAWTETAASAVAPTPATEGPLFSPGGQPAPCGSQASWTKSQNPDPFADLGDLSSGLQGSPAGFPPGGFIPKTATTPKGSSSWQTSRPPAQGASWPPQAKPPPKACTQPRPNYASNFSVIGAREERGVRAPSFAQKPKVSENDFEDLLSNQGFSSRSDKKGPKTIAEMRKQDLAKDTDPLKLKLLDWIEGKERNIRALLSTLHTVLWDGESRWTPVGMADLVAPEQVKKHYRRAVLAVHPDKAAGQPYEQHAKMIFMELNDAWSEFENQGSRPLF
Description: KINOMEscan 1 μM, GAK. The format is binding. The note with it: 1000 nM; Entrez GAK; read-out: Percent Control.
From the text: as §1

For another experiment, the target named is T3, PIK3C2B (Homo sapiens, UniProt O00750).
T3 construct: purchased Eurofins DiscoverX KINOMEscan
Description: KINOMEscan 1 μM, PIK3C2B. To be noted: 1000 nM; Entrez PIK3C2B; read-out: Percent Control. The format is binding.
From the text: as §1

In the next experiment the target is T4, KIT(A829P) (Homo sapiens, UniProt P10721, A829P).
T4 construct: purchased Eurofins DiscoverX KINOMEscan
Description: KINOMEscan 1 μM, KIT(A829P). The format is binding. The note with it: 1000 nM; Entrez KIT; read-out: Percent Control.
From the text: as §1

The target of a further experiment is T5, IKK-epsilon (Homo sapiens, UniProt Q14164).
T5 construct: purchased Eurofins DiscoverX KINOMEscan
The experiment can be described thus: KINOMEscan 1 μM, IKK-epsilon. In kind it is binding. To be noted: 1000 nM; Entrez IKBKE; read-out: Percent Control.
From the text: as §1

Another experiment concerns the target T6, LATS1 (Homo sapiens, UniProt O95835).
T6 construct: purchased Eurofins DiscoverX KINOMEscan
The experiment can be described thus: KINOMEscan 1 μM, LATS1. The note with it: 1000 nM; Entrez LATS1; read-out: Percent Control. In kind it is binding.
From the text: as §1

The next experiment has as its target T7, EPHA6 (Homo sapiens, UniProt Q9UF33).
T7 construct: purchased Eurofins DiscoverX KINOMEscan
The experiment can be described thus: KINOMEscan 1 μM, EPHA6. In kind it is binding. To be noted: 1000 nM; Entrez EPHA6; read-out: Percent Control.
From the text: as §1

The next experiment deals with T8, TNK2 (Homo sapiens, UniProt Q07912).
T8 construct: purchased Eurofins DiscoverX KINOMEscan
The experiment can be described thus: KINOMEscan 1 μM, TNK2. In kind it is binding. The note with it: 1000 nM; Entrez TNK2; read-out: Percent Control.
From the text: as §1

A further experiment concerns the target T9, CDK11 (Homo sapiens, UniProt Q9BWU1).
T9 construct: purchased Eurofins DiscoverX KINOMEscan
Description: KINOMEscan 1 μM, CDK11. In kind it is binding. To be noted: 1000 nM; Entrez CDK19; read-out: Percent Control.
From the text: as §1

Another experiment addresses T10, DRAK2 (Homo sapiens, UniProt O94768).
T10 construct: purchased Eurofins DiscoverX KINOMEscan
The experiment can be described thus: KINOMEscan 1 μM, DRAK2. To be noted: 1000 nM; Entrez STK17B; read-out: Percent Control. In kind it is binding.
From the text: as §1

The target of experiment [1] is T11, EGFR(L747-S752del, P753S) (Homo sapiens, UniProt P00533, DEL747-752/P753S).
T11 construct: purchased Eurofins DiscoverX KINOMEscan
The experiment can be described thus: KINOMEscan 1 μM, EGFR(L747-S752del, P753S). The format is binding. The note with it: 1000 nM; Entrez EGFR; read-out: Percent Control.
From the text: as §1

The target of another experiment is T12, MAP4K2 (Homo sapiens, UniProt Q12851).
T12 construct: purchased Eurofins DiscoverX KINOMEscan
The experiment can be described thus: KINOMEscan 1 μM, MAP4K2. The format is binding. The note with it: 1000 nM; Entrez MAP4K2; read-out: Percent Control.
From the text: as §1

For a further experiment, the target named is T13, WEE1 (Homo sapiens, UniProt P30291).
T13 construct: purchased Eurofins DiscoverX KINOMEscan
The experiment can be described thus: KINOMEscan 1 μM, WEE1. The note with it: 1000 nM; Entrez WEE1; read-out: Percent Control. In kind it is binding.
From the text: as §1

For experiment [2], the target named is T14, ABL1(E255K)-phosphorylated (Homo sapiens, UniProt P00519, E255K).
T14 construct: purchased Eurofins DiscoverX KINOMEscan
Description: KINOMEscan 1 μM, ABL1(E255K)-phosphorylated. The note with it: 1000 nM; Entrez ABL1; read-out: Percent Control. In kind it is binding.
From the text: as §1

A further experiment has as its target T15, PAK7 (Homo sapiens, UniProt Q9P286).
T15 construct: purchased Eurofins DiscoverX KINOMEscan
The experiment can be described thus: DiscoverX KINOMEscan binding assay at 1 μM, PAK7. The note with it: Compound Concentration 1000 nM, read-out: Percent Control.
From the text: as §1

In the next experiment the target is T16, CSK (Homo sapiens, UniProt P41240).
T16 construct: purchased Eurofins DiscoverX KINOMEscan
The experiment can be described thus: KINOMEscan at 1 μM, CSK. The format is binding. To be noted: 1000 nM, read-out: Percent Control. The source says: (§2) Supplement cells-12-00287-s001.zip/File S2. KinomeScan data for the CAMKK2 probe and negative control.xlsx, sheet "SGC-CAMKK2-1N" | column: Percent Control

The next experiment has as its target T17, WEE2 (Homo sapiens, UniProt P0C1S8).
T17 construct: purchased Eurofins DiscoverX KINOMEscan
Description: KINOMEscan at 1 μM, WEE2. The format is binding. To be noted: 1000 nM, read-out: Percent Control.
From the text: as §2

A further experiment concerns the target T18, KIT-autoinhibited (Homo sapiens, UniProt P10721).
T18 construct: purchased Eurofins DiscoverX KINOMEscan
The experiment can be described thus: KINOMEscan at 1 μM, KIT-autoinhibited. The format is binding. To be noted: 1000 nM, read-out: Percent Control.
From the text: as §2

Another experiment concerns the target T19, PKN1 (Homo sapiens, UniProt Q16512).
T19 construct: purchased Eurofins DiscoverX KINOMEscan
Description: KINOMEscan binding assay at 1 μM, PKN1. The note with it: Compound Concentration 1000 nM; read-out: Percent Control.
From the text: as §2

In a further experiment the target is T20, MAP4K4 (Homo sapiens, UniProt O95819).
T20 construct: purchased Eurofins DiscoverX KINOMEscan
Description: KINOMEscan at 1 μM, MAP4K4. The format is binding. To be noted: 1000 nM, read-out: Percent Control.
From the text: as §2

The target of a further experiment is T21, CDC2L1 (Homo sapiens, UniProt P21127).
T21 construct: purchased Eurofins DiscoverX KINOMEscan
Description: KINOMEscan at 1 μM, CDC2L1. To be noted: 1000 nM, read-out: Percent Control. In kind it is binding.
From the text: as §2

In a further experiment the target is T22, CDK7 (Homo sapiens, UniProt P50613).
T22 construct: purchased Eurofins DiscoverX KINOMEscan
Description: KINOMEscan at 1 μM, CDK7. To be noted: 1000 nM, read-out: Percent Control. The format is binding.
From the text: as §2

Another experiment deals with T23, MET (Homo sapiens, UniProt P08581).
T23 construct: purchased Eurofins DiscoverX KINOMEscan
T23 sequence (P08581 25-1390): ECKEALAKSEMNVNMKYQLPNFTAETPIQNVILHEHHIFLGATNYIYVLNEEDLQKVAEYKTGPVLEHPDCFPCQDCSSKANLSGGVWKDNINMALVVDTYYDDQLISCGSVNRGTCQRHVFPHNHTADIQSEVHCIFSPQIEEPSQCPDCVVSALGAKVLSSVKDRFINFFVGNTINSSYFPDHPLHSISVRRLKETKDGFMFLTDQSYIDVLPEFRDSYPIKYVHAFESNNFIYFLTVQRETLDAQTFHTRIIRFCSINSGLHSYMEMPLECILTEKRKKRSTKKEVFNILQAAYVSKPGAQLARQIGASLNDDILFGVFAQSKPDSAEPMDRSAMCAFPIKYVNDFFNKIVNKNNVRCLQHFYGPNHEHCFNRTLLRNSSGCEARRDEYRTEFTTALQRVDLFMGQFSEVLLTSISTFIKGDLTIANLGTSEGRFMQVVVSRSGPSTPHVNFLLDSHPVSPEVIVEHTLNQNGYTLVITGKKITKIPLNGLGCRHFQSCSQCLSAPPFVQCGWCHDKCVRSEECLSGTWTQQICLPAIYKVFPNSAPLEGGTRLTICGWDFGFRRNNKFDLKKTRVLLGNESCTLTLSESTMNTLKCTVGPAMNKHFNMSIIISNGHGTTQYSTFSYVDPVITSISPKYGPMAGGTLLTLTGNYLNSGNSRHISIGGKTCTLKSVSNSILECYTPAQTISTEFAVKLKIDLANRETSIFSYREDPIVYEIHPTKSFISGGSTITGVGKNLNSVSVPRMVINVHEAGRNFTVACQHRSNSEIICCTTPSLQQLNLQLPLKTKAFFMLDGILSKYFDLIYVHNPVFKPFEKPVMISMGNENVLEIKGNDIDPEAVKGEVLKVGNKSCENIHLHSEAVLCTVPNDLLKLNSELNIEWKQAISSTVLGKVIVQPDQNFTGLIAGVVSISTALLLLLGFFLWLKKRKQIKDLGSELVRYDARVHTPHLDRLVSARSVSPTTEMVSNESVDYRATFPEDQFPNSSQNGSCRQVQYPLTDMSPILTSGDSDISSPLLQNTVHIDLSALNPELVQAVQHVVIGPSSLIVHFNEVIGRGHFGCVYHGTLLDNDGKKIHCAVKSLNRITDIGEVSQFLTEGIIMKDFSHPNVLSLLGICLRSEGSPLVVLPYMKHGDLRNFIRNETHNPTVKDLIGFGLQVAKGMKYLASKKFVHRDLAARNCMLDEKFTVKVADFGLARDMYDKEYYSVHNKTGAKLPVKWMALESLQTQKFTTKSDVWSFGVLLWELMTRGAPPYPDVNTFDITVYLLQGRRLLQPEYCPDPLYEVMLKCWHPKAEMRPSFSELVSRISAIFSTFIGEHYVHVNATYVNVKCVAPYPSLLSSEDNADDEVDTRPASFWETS
Description: KINOMEscan at 1 μM, MET. The format is binding. To be noted: 1000 nM, read-out: Percent Control.
From the text: as §2

Experiment [3] concerns the target T24, JAK1(JH2domain-pseudokinase) (Homo sapiens, UniProt P23458).
T24 construct: JAK1(JH2domain-pseudokinase); purchased Eurofins DiscoverX KINOMEscan
Description: KINOMEscan at 1 μM, JAK1(JH2domain-pseudokinase). The format is binding. The note with it: 1000 nM, read-out: Percent Control.
From the text: as §2

For a further experiment, the target named is T25, PIP5K1C (Homo sapiens, UniProt O60331).
T25 construct: purchased Eurofins DiscoverX KINOMEscan
The experiment can be described thus: KINOMEscan binding assay at 1 μM, PIP5K1C. To be noted: Compound Concentration 1000 nM; read-out: Percent Control.
From the text: as §2

The target in a further experiment is T26, EPHA8 (Homo sapiens, UniProt P29322).
T26 construct: purchased Eurofins DiscoverX KINOMEscan
The experiment can be described thus: KINOMEscan binding assay at 1 μM, EPHA8. The note with it: Compound Concentration 1000 nM; read-out: Percent Control.
From the text: as §2

The target in the next experiment is T27, HIPK4 (Homo sapiens, UniProt Q8NE63).
T27 construct: purchased Eurofins DiscoverX KINOMEscan
T27 sequence (Q8NE63 whole entry): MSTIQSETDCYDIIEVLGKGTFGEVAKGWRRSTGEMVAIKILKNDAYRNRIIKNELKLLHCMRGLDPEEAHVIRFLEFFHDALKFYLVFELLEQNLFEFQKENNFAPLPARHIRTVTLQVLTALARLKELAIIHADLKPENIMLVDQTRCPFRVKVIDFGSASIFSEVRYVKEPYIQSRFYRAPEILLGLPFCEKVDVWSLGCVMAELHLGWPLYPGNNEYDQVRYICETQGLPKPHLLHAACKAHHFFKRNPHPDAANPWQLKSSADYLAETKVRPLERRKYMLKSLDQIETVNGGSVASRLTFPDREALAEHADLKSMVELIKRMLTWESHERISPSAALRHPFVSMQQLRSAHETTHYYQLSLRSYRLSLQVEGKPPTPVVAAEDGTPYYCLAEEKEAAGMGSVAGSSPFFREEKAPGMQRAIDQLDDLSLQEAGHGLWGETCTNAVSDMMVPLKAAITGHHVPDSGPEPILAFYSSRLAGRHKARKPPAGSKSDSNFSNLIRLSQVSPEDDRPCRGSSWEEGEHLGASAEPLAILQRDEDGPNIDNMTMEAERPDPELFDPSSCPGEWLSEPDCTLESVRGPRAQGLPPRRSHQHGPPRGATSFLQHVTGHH
Description: KINOMEscan at 1 μM, HIPK4. The format is binding. To be noted: 1000 nM, read-out: Percent Control.
From the text: as §2

In another experiment the target is T28, RIPK4 (Homo sapiens, UniProt P57078).
T28 construct: purchased Eurofins DiscoverX KINOMEscan
Description: KINOMEscan at 1 μM, RIPK4. In kind it is binding. The note with it: 1000 nM, read-out: Percent Control.
From the text: as §2

The target of a further experiment is T29, EIF2AK1 (Homo sapiens, UniProt Q9BQI3).
T29 construct: purchased Eurofins DiscoverX KINOMEscan
Description: KINOMEscan at 1 μM, EIF2AK1. To be noted: 1000 nM, read-out: Percent Control. In kind it is binding.
From the text: as §2

The next experiment has as its system EGFR(L747-T751del,Sins). Description: KINOMEscan binding assay at 1 μM, EGFR(L747-T751del,Sins). The arrangement: species or system human. The note with it: Compound Concentration 1000 nM.
From the text: as §2

A further experiment deals with T30, LIMK2 (Homo sapiens, UniProt P53671).
T30 construct: purchased Eurofins DiscoverX KINOMEscan
The experiment can be described thus: KINOMEscan at 1 μM, LIMK2. In kind it is binding. To be noted: 1000 nM, read-out: Percent Control.
From the text: as §2

The next experiment concerns the target T31, ERK1 (Homo sapiens, UniProt P27361).
T31 construct: purchased Eurofins DiscoverX KINOMEscan
The experiment can be described thus: KINOMEscan at 1 μM, ERK1. The note with it: 1000 nM, read-out: Percent Control. The format is binding.
From the text: as §2

In a further experiment the target is T32, CHEK2 (Homo sapiens, UniProt O96017).
T32 construct: purchased Eurofins DiscoverX KINOMEscan
The experiment can be described thus: KINOMEscan at 1 μM, CHEK2. In kind it is binding. The note with it: 1000 nM, read-out: Percent Control.
From the text: as §2

T17 sequence (P0C1S8 whole entry): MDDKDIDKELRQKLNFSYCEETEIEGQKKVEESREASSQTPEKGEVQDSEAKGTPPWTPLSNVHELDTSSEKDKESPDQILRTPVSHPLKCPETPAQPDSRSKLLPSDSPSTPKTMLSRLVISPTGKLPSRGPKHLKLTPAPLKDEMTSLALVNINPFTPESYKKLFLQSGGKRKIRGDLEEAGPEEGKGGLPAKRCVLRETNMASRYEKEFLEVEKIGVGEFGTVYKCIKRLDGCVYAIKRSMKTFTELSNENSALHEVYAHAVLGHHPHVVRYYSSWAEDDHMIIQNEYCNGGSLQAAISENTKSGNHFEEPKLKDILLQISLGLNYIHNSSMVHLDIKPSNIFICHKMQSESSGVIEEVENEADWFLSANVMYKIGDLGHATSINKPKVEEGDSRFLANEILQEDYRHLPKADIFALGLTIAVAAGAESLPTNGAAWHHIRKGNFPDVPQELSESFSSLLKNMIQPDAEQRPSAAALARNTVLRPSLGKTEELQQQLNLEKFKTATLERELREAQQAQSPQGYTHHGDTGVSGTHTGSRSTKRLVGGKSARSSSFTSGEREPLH
T18 sequence (P10721 26-976): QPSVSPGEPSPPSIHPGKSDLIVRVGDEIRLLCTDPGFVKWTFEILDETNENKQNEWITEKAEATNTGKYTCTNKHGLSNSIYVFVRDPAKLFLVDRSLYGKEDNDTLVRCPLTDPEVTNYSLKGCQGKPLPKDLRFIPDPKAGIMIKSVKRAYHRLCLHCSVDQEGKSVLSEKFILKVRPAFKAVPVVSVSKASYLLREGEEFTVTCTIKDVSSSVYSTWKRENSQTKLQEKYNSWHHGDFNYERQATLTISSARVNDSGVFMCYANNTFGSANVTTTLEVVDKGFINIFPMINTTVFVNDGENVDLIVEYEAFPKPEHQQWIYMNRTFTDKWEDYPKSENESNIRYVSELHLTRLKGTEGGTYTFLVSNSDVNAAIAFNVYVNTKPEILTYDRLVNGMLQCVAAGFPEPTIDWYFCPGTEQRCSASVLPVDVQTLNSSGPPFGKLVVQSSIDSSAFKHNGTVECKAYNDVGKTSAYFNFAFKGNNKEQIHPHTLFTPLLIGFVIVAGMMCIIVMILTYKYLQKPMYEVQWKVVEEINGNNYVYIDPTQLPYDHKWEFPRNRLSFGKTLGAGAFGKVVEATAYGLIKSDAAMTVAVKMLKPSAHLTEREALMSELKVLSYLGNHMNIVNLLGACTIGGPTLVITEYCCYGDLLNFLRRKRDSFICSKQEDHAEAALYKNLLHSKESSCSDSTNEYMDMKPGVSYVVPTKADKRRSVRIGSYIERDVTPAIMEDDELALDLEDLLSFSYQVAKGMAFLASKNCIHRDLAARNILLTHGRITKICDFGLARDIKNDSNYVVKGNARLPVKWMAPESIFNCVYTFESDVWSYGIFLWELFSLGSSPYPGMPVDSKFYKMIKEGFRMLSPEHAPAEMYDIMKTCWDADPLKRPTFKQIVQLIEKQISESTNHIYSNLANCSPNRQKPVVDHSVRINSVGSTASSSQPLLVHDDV
T24 sequence (P23458 583-855 limits assumed): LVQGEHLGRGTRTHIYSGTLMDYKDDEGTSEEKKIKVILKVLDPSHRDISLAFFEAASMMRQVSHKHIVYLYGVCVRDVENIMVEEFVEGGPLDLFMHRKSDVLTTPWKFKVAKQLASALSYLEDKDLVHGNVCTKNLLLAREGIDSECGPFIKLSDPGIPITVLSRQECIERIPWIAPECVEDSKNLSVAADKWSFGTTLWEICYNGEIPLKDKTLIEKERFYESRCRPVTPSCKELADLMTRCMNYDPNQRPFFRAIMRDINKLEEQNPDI

Consider `Cc1cccc(-c2cnc3occ(-c4ccc(C(=O)O)c(C5CCCC5)c4)c3c2)c1` [SGC-CAMKK2-1 (YL-36)], for which the remaining binding at 1 µM at DDR2 was determined as 100%; at GAK it was 80%; at PIK3C2B, 87%; on KIT(A829P) it was 61%; on IKK-epsilon it was 100%; on LATS1, 100%. Also, the remaining binding at 1 µM stood at 100% on EPHA6; 99% at TNK2; 98% at CDK11; 100% at DRAK2; 59% in experiment [1]; 100% at MAP4K2. The values for the remaining binding at 1 µM (at WEE1; in experiment [2]; on PAK7) were 82%, 98% and 100%, respectively.
Take `O=C(O)c1ccc(-c2coc3ncc(-c4ccccc4)cc23)cc1Cl` [SGC-CAMKK2-1N (UNC-YL-83)]: the remaining binding at 1 µM on CSK was 60%; at WEE2, 93%; on KIT-autoinhibited, 92%; on PKN1 it was 100%; on MAP4K4, 94%; on CDC2L1 it was 72%. The remaining binding at 1 µM at CDK7 came out at 66%; on MET it was 91%; in experiment [3], 80%; at PIP5K1C, 100%; on EPHA8 it was 100%; at HIPK4, 89%. The remaining binding at 1 µM on RIPK4 is 70%; at EIF2AK1, 42%; on LIMK2, 92%; on ERK1 it was 95%; on CHEK2, 100%. Moreover, in the experiment with EGFR(L747-T751del,Sins), the “Percent Control” value came out at 100%.
